Source: ChEMBL document CHEMBL1127695, “Rational modification of human synovial fluid phospholipase A2 inhibitors” (J Med Chem, 1994)

What was measured:
[1] = target: T1, Phospholipase A2, membrane associated (Homo sapiens) (UniProt P14555); experiment: Tested for the inhibition of human synovial fluid phospholipase A2
T1 sequence (whole entry): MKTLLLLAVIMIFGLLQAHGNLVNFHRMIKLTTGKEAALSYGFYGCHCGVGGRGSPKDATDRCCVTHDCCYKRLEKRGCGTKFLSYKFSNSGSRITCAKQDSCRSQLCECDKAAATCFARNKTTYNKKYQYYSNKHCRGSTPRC

[2] = target: Phospholipase A2, major isoenzyme (Sus scrofa) (UniProt P00592); experiment: Tested for the inhibition of porcine pancreatic enzyme; conditions: concentration not given here
[3] = target: T1, Phospholipase A2, membrane associated (Homo sapiens); experiment: Tested for the inhibition of human synovial fluid enzyme phospholipase A2 (PLA2); conditions: concentration not given here

Phospholipase A2, major isoenzyme (Sus scrofa), sequence (P00592 23-146 limits assumed): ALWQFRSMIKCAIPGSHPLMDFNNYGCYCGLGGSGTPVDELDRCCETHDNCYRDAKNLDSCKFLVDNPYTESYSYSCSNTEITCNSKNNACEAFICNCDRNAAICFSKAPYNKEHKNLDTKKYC

| SMILES | X1(50) (mole fraction) [1] | inhibition [2] [%] | inhibition [3] [%] |
| --- | --- | --- | --- |
| CCCCCCCCOC[C@H](COP(=O)(O)OCCN)OP(=O)(O)CCCCCCC | 0.025 |  |  |
| CCCCCCCCCCS(=O)(=O)NC(CCCCCC)COP(=O)(O)OCCO (stereo not drawn) |  | 43 | 66 |
